In ChEMBL document CHEMBL6177995, “In Silico Discovery of Novel Potent Trace Amine-Associated Receptor TAAR1 Agonists as Promising Drug Candidates for the Treatment of Schizophrenia” (J Med Chem, 2025):

Experiments:
[1] = Half-life in Sprague-Dawley rat at 2 mg/kg, iv measured after 8 hrs by LC-MS/MS analysis; format: ADME, organism-based; conditions: in vivo
[2] = Tmax in Sprague-Dawley rat at 2 mg/kg, iv measured after 8 hrs by LC-MS/MS analysis; format: ADME, organism-based; conditions: in vivo
[3] = Cmax in Sprague-Dawley rat at 2 mg/kg, iv measured after 8 hrs by LC-MS/MS analysis; format: ADME, organism-based; conditions: in vivo
[4] = AUC (0 to t) in Sprague-Dawley rat at 2 mg/kg, iv measured after 8 hrs by LC-MS/MS analysis; format: ADME, organism-based; conditions: in vivo
[5] = AUC (0 to infinity) in Sprague-Dawley rat at 2 mg/kg, iv measured after 8 hrs by LC-MS/MS analysis; format: ADME, organism-based; conditions: in vivo
[6] = Clearance in Sprague-Dawley rat at 2 mg/kg, iv measured after 8 hrs by LC-MS/MS analysis; format: ADME, organism-based; conditions: in vivo
[7] = Half-life in Sprague-Dawley rat at 10 mg/kg, po measured after 8 hrs by LC-MS/MS analysis; format: ADME, organism-based; conditions: in vivo
[8] = Tmax in Sprague-Dawley rat at 10 mg/kg, po measured after 8 hrs by LC-MS/MS analysis; format: ADME, organism-based; conditions: in vivo
[9] = Cmax in Sprague-Dawley rat at 10 mg/kg, po measured after 8 hrs by LC-MS/MS analysis; format: ADME, organism-based; conditions: in vivo
[10] = AUC (0 to t) in Sprague-Dawley rat at 10 mg/kg, po measured after 8 hrs by LC-MS/MS analysis; format: ADME, organism-based; conditions: in vivo
[11] = AUC (0 to infinity) in Sprague-Dawley rat at 10 mg/kg, po measured after 8 hrs by LC-MS/MS analysis; format: ADME, organism-based; conditions: in vivo
[12] = Oral bioavailability in Sprague-Dawley rat at 10 mg/kg measured after 8 hrs by LC-MS/MS analysis; format: ADME, organism-based; conditions: in vivo
[13] = Acute toxicity in Kunming mouse assessed as abnormalities at 1000 mg/kg, po administered as single dose and measured after 7 days; format: organism-based; conditions: in vivo, 168 h, time 7 day
[14] = Acute toxicity in Kunming mouse assessed as animal death at 1000 mg/kg, po administered as single dose and measured after 7 days; format: organism-based; conditions: in vivo, 168 h, time 7 day
[15] = Acute toxicity in Kunming mouse assessed as effect on body weight at 1000 mg/kg, po administered as single dose and measured after 7 days; format: organism-based; conditions: in vivo, 168 h, time 7 day
[16] = Acute toxicity in Kunming mouse assessed as effect on heart co-efficient at 1000 mg/kg, po administered as single dose and measured after 7 days; format: organism-based; conditions: in vivo, 168 h, time 7 day
[17] = Acute toxicity in Kunming mouse assessed as effect on liver co-efficient at 1000 mg/kg, po administered as single dose and measured after 7 days; format: organism-based; conditions: in vivo, 168 h, time 7 day
[18] = Acute toxicity in Kunming mouse assessed as effect on spleen co-efficient at 1000 mg/kg, po administered as single dose and measured after 7 days; format: organism-based; conditions: in vivo, 168 h, time 7 day
[19] = Acute toxicity in Kunming mouse assessed as effect on lung co-efficient at 1000 mg/kg, po administered as single dose and measured after 7 days; format: organism-based; conditions: in vivo, 168 h, time 7 day
[20] = Acute toxicity in Kunming mouse assessed as effect on kidney co-efficient at 1000 mg/kg, po administered as single dose and measured after 7 days; format: organism-based; conditions: in vivo, 168 h, time 7 day
[21] = Subacute toxicity in Kunming mouse assessed as abnormalities at 50 mg/kg, po administered every two days for 14 days; format: organism-based; conditions: in vivo, 336 h, time 14 day
[22] = Subacute toxicity in Kunming mouse assessed as animal death at 50 mg/kg, po administered every two days for 14 days; format: organism-based; conditions: in vivo, 336 h, time 14 day
[23] = Subacute toxicity in Kunming mouse assessed as effect on body weight at 50 mg/kg, po administered every two days for 14 days; format: organism-based; conditions: in vivo, 336 h, time 14 day
[24] = Subacute toxicity in Kunming mouse assessed as effect on heart coefficient at 50 mg/kg, po administered every two days for 14 days; format: organism-based; conditions: in vivo, 336 h, time 14 day
[25] = Subacute toxicity in Kunming mouse assessed as effect on liver coefficient at 50 mg/kg, po administered every two days for 14 days; format: organism-based; conditions: in vivo, 336 h, time 14 day
[26] = Subacute toxicity in Kunming mouse assessed as effect on spleen coefficient at 50 mg/kg, po administered every two days for 14 days; format: organism-based; conditions: in vivo, 336 h, time 14 day
[27] = Subacute toxicity in Kunming mouse assessed as effect on lung coefficient at 50 mg/kg, po administered every two days for 14 days; format: organism-based; conditions: in vivo, 336 h, time 14 day
[28] = Subacute toxicity in Kunming mouse assessed as effect on kidney coefficient at 50 mg/kg, po administered every two days for 14 days; format: organism-based; conditions: in vivo, 336 h, time 14 day
[29] = Subacute toxicity in Kunming mouse assessed as pathological changes in heart at 50 mg/kg, po administered every two days for 14 days by H and E staining based analysis; format: organism-based; conditions: in vivo, 336 h, time 14 day
[30] = Subacute toxicity in Kunming mouse assessed as pathological changes in liver at 50 mg/kg, po administered every two days for 14 days by H and E staining based analysis; format: organism-based; conditions: in vivo, 336 h, time 14 day
[31] = Subacute toxicity in Kunming mouse assessed as pathological changes in spleen at 50 mg/kg, po administered every two days for 14 days by H and E staining based analysis; format: organism-based; conditions: in vivo, 336 h, time 14 day
[32] = Subacute toxicity in Kunming mouse assessed as pathological changes in lung at 50 mg/kg, po administered every two days for 14 days by H and E staining based analysis; format: organism-based; conditions: in vivo, 336 h, time 14 day
[33] = Subacute toxicity in Kunming mouse assessed as pathological changes in kidney at 50 mg/kg, po administered every two days for 14 days by H and E staining based analysis; format: organism-based; conditions: in vivo, 336 h, time 14 day
[34] = Metabolic stability in human liver microsomes assessed as half-life preincubated for 60 mins followed by NADPH addition and measured after 60 mins by LC-MS/MS analysis; format: ADME, Microsome; conditions: time 120 min
[35] = Metabolic stability in human liver microsomes assessed as intrinsic clearance preincubated for 60 mins followed by NADPH addition and measured after 60 mins by LC-MS/MS analysis; format: ADME, Microsome; conditions: time 120 min, read-out: CLH
[36] = Aqueous solubility of compound at pH 2.0; format: physicochemical; conditions: aqueous solution
[37] = Aqueous solubility of compound at pH 7.0; format: physicochemical; conditions: aqueous solution
[38] = Aqueous solubility of compound at pH 7.4; format: physicochemical; conditions: aqueous solution
[39] = system: Mus musculus; test: Antipsychotic activity in MK-801 induced male C57BL/6J mouse model assessed as reduction in hyperlocomotion preadministered orally for 30 mins followed by MK801 administration for 30 mins and measured after 10 mins by open field test; format: functional, organism-based; conditions: dose 1-10 mg/kg, route po, time 70.0 min
[40] = system: Mus musculus; test: Antipsychotic activity in MK-801 induced male C57BL/6J mouse model assessed as locomotion at 10 mg/kg, po preadministered for 30 mins followed by MK801 administration for 30 mins and measured after 10 mins by open field test (reference value: 8631.5 cm); format: functional; conditions: time 70 min, 1.167 h
[41] = Toxicity in male C57BL/6J mouse assessed as effect on locomotion at 1 to 10 mg/kg, po administered for 30 mins and measured after 10 mins by open field test; format: organism-based; conditions: in vivo, 40 min, dose 1-10 mg/kg
[42] = system: Mus musculus; test: Antipsychotic activity in MK-801 induced male C57BL/6J mouse model assessed as improvement in recognition deficit performance by measuring discrimination index at 3 mg/kg, po pre-administered with MK-801 as twice daily days for 7 days followed by 1 week of washout period and measured after 1 hrs of compound administration by novel object recognition test (reference value: 0.37); format: functional
[43] = Toxicity in male C57BL/6J mouse assessed as catalepsy performance at 30 mg/kg, ip measured after 30 to 60 mins by bar test; format: organism-based; conditions: in vivo, time 30-60 min
[44] = molecular target: T1, Trace amine-associated receptor 1 (Homo sapiens, UniProt Q96RJ0); test: Agonist activity at TAAR1 (unknown origin) transfected in HEK293 cells co-transfected with GalphaS-Nluc, Gbeta1/3 and Ggamma1/2/9-mVenus assessed as GalphaS-Gbeta/gamma dissociation by BRET assay; format: functional, cell-based
T1 sequence (Q96RJ0 whole entry): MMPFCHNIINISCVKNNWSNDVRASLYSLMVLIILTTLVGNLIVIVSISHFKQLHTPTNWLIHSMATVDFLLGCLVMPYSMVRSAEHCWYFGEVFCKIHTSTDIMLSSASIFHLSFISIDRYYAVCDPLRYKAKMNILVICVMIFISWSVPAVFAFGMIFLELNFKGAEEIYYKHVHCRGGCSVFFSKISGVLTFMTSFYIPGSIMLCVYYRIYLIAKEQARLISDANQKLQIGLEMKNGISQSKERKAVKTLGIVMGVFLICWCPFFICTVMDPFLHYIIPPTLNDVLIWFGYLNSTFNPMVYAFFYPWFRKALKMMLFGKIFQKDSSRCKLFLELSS

[45] = molecular target: T1, Trace amine-associated receptor 1; test: Agonist activity at TAAR1 (unknown origin) transfected in HEK293 cells co-transfected with Galphaq-Nluc, Gbeta1/3 and Ggamma1/2/9-mVenus assessed as Galphaq-Gbeta/gamma dissociation by BRET assay; format: functional, cell-based
[46] = molecular target: T2, Trace amine-associated receptor 1 (Homo sapiens) (UniProt Q96RJ0); test: Potency index, ratio of SEP-363856 EC50 to test compound EC50 for agonist activity at TAAR1 (unknown origin) transfected in HEK293 cells co-transfected with GalphaS-Nluc, Gbeta1/3 and Ggamma1/2/9-mVenus assessed as GalphaS-Gbeta/gamma dissociation by BRET assay; format: functional, cell-based; conditions: filed as agonist
T2 sequence (whole entry): T1 sequence (Q96RJ0 whole entry)

[47] = Toxicity in male C57BL/6J mouse assessed as catalepsy by measuring extrapyramidal symptoms at 3 mg/kg, ip measured after 30 to 60 mins by bar test; format: organism-based; conditions: in vivo, time 30-60 min

Structure (SMILES): COc1cccc(S(=O)(=O)NC[C@@H]2CCCN2)c1.Cl
- half-life [1]: 21 min
- Tmax [2]: 1.8 min
- Cmax [3]: 746 ng/mL
- AUC(0-t) at 8 h [4]: 355 ng·h/mL
- AUC(0-inf) [5]: 356 ng·h/mL
- clearance [6]: 94.1 mL/min/kg
- half-life [7]: 91.8 min
- Tmax [8]: 25.2 min
- Cmax [9]: 63.7 ng/mL
- AUC(0-t) at 8 h [10]: 229 ng·h/mL
- AUC(0-inf) [11]: 240 ng·h/mL
- bioavailability [12]: 13.4%
- Activity [13]: Non-toxic
- Activity [14]: Non-toxic
- Activity [15]: Non-toxic
- Activity [16]: Non-toxic
- Activity [17]: Non-toxic
- Activity [18]: Non-toxic
- Activity [19]: Non-toxic
- Activity [20]: Non-toxic
- Activity [21]: Non-toxic
- Activity [22]: Non-toxic
- Activity [23]: Non-toxic
- Activity [24]: Non-toxic
- Activity [25]: Non-toxic
- Activity [26]: Non-toxic
- Activity [27]: Non-toxic
- Activity [28]: Non-toxic
- Activity [29]: Non-toxic
- Activity [30]: Non-toxic
- Activity [31]: Non-toxic
- Activity [32]: Non-toxic
- Activity [33]: Non-toxic
- half-life [34]: 126 min
- microsomal CLint [35]: 11 µL/min/mg
- solubility [36]: 96.2 mg/mL
- solubility [37]: 65.7 mg/mL
- solubility [38]: 43.3 mg/mL
- Activity [39]: Dose-dependent-effect
- Activity [40]: 3917.8 cm
- Activity [41]: Non-toxic
- Activity_index [42]: 0.48
- Activity [43]: Non-toxic
- EC50 [44]: 6.1 nM
- EC50 [45]: 14.8 nM
- Ratio EC50 [46]: 3.5

Structure (SMILES): O=C(CCCN1CCC(O)(c2ccc(Cl)cc2)CC1)c1ccc(F)cc1 [HALOPERIDOL]
- Activity [47]: Toxic
